According to patent US20160281133A1, “STABILIZATION AND ISOLATION OF EXTRACELLULAR NUCLEIC ACIDS” (QIAGEN GMBH, priority 2013, published 2016):
Where a SMILES comes first, the peptide text is derived from it. The star is where a group is joined. Cbz = O=C(OCc1ccccc1)*; CH2F = FC*

Key:
[1] = test system: etoposide-induced cortical neuron death; conditions: cited from earlier work
[2] = in neuron culture medium at 37° C.; cited from earlier work
[3] = test system: whole blood samples; experiment: DNA size distribution by chip gel electrophoresis (blood cell stability/DNA release); type: cell-based, human; conditions: 20 μM in 10 ml K2E blood; day 3 and day 7
Method: To separate the blood plasma from the whole blood, the blood samples were centrifuged for 15 min at 5000 rpm, and the obtained plasma samples were again centrifuged for 10 min at 16.000×g at 4° C.
The circulating, extracellular nucleic acids were purified from the obtained plasma samples using the QIAamp® Circulating NA Kit (QIAGEN, according to the handbook). In brief: • 10 ml sample input; • lysis: 1 ml Proteinase K and 8 ml Buffer ACL (QIAGEN) • binding: 18 ml Buffer ACB (QIAGEN) • wash-steps: unchanged and according to handbook • elution in 60 μl Buffer AVE (QIAGEN)
1.3.1 Measurement of the blood cell stability/DNA release by the determination of DNA size distribution using a chip gel electrophoresis (2100 Bioanalyzer; Agilent Technologies; Inc., USA) according to manufacturer's instruction (see handbook Agilent DNA 7500 and DNA 12000 Kit Guide), but 1.5 μl instead of 1 μl sample were transferred to the wells.
Each tested caspase inhibitor was added to whole blood samples (20 μM end concentration in 10 ml blood; blood was collected into Vacutainer K2E Tubes; BD). The whole blood sample was processed as described in section 1 (plasma preparation and nucleic acid isolation).
The eluted circulating cell-free DNA was separated by size using chip gel electrophoresis (for details on the method see above). […]

[4] = test system: whole blood samples; experiment: 18S DNA duplex real time PCR assay, increase of DNA in plasma of stored blood, example 5; type: cell-based, human; conditions: 20 μM caspase inhibitor in whole blood; storage at RT
[5] = in DMSO (highest concentration listed in the cell); cited from earlier work
[6] = target: Stat3 (Homo sapiens, UniProt P40763); conditions: read-out: DB50 (concentration of peptide at which DNA-binding activity is inhibited by 50%); cited from earlier work
Sequence of Stat3 (P40763 whole entry, species assumed): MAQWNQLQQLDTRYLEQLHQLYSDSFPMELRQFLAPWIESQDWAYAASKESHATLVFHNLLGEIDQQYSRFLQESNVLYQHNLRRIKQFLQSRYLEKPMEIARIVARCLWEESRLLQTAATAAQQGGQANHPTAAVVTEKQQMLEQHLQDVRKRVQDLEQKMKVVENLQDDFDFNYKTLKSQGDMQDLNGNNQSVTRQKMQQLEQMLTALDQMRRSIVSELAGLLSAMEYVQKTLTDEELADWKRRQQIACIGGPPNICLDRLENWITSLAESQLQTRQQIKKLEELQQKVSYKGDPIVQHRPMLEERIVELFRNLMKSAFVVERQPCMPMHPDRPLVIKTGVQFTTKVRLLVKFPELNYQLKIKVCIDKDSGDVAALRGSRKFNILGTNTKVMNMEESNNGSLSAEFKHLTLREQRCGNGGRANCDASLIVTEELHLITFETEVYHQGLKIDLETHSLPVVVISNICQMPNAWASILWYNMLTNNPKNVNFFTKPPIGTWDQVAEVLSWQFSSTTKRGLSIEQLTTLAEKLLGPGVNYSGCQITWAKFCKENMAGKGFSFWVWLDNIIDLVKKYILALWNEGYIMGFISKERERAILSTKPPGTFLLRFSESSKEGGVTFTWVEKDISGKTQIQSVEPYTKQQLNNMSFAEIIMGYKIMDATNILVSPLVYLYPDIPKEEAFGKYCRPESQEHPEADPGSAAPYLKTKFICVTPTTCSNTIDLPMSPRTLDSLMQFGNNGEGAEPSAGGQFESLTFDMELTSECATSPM

[7] = test system: proliferation; conditions: cited from earlier work
[8] = test system: LDH % release; conditions: cited from earlier work
[9] = test system: PI3K; conditions: cited from earlier work
[10] = test system: TNF-induced inhibition of DNA synthesis; conditions: cited from earlier work
[11] = test system: TNF-induced PMN-EC adhesion; conditions: cited from earlier work
[12] = test system: PKC; conditions: cited from earlier work

O=[N+]([O-])c1ccc(-c2cn3c4c(sc3n2)CCCC4)cc1 [Pifithrin-α, p-Nitro, Cyclic]
higher potency than Pifithrin-α [1]: A cell-permeable p53 inhibitor that exhibits 10-fold higher potency
longer half-life than Pifithrin-α [2]: 50%
t½ [2]: 6 h

COC(=O)C[C@H](NC(=O)[C@H](C)NC(=O)[C@@H](NC(=O)OCc1ccccc1)C(C)C)C(=O)CF [Z-Val-Ala-Asp(OMe)-FMK] (Cbz-Val-Ala-Asp(OMe)-CH2F)
ladder-like pattern of bands (release and fragmentation of genomic DNA) compared to controls [3]: reduced ladder-like pattern
increase of DNA from day 0 to day 3 or 7 [4]: more prominent on day 7
solubility [5]: 20 mM, add 107 μl DMSO 10 mM, add 214 μl DMSO 5 mM, add 428 μl DMSO

Ac-Pro-Tyr(PO3H2)-Leu-Lys-Thr-Lys-OH (PYLKTK; HELM PEPTIDE1{[ac].P.[O=C([C@H](Cc1ccc(OP(=O)(O)O)cc1)N[*:1])[*:2]].L.K.T.K}$$$$V2.0; SMILES CC(=O)N1CCC[C@H]1C(=O)N[C@@H](Cc1ccc(OP(=O)(O)O)cc1)C(=O)N[C@@H](CC(C)C)C(=O)N[C@@H](CCCCN)C(=O)N[C@H](C(=O)N[C@@H](CCCCN)C(=O)O)[C@@H](C)O) [STAT3 Inhibitor Peptide]
IC50 [6]: 235 µM

O=c1c(O)c(-c2ccc(O)c(O)c2)oc2cc(O)cc(O)c12 [Quercetin(Sophoretin), Quercetin]
IC50 [7]: 11.4 µM
IC50 [8]: 0.8 µM
IC50 [9]: 3.8 µM
IC50 [10]: 6.1 µM
IC50 [11]: 16.7 µM
IC50 [12]: 15 μg/ml. It strongly abrogated PI3K and Src kinases, mildly
